Test results from PubChem BioAssay AID328 (DTP/NCI, 2004).
Toxic doses and inconclusive results are not listed. How the source made its calls: active means survival T/C of 150% or more; inactive means T/C below 125% in these data.

Tested on: BDF1 mice, P388 leukemia ip, median survival T/C
Assay: NCI In Vivo Anticancer Drug Screen. Data for tumor model P388 Leukemia (intraperitoneal) in B6D2F1 (BDF1) mice
Conditions: endpoint: median survival time, higher = longer survival
Outline: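 Survival ratio, drug arm over vehicle arm, in mice with a transplanted tumour.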

[1] = dose: 100.0 mg/kg/injection, schedule: Q04DX003 (ip), vehicle: Klucel (hydroxypropylcellulose) (HPC)
[2] = dose: 200.0 mg/kg/injection, schedule: Q04DX003 (ip), vehicle: Klucel (hydroxypropylcellulose) (HPC)
[3] = dose: 400.0 mg/kg/injection, schedule: Q04DX003 (ip), vehicle: Klucel (hydroxypropylcellulose) (HPC)
[4] = dose: 200.0 mg/kg/injection, schedule: Q01DX009 (ip), vehicle: Klucel (hydroxypropylcellulose) (HPC)
[5] = dose: 400.0 mg/kg/injection, schedule: Q01DX009 (ip), vehicle: Klucel (hydroxypropylcellulose) (HPC)
[6] = dose: 50.0 mg/kg/injection, schedule: Q01DX009 (ip), vehicle: saline with Tween-80
[7] = dose: 100.0 mg/kg/injection, schedule: Q01DX009 (ip), vehicle: saline with Tween-80
[8] = dose: 200.0 mg/kg/injection, schedule: Q01DX009 (ip), vehicle: saline with Tween-80

Measured: T/C

O=C(O)CCCCCCCCCCCCO
inactive: [1] 109 % of control | [2] 90 % of control | [3] 90 % of control

CCOC(=O)C1=C2c3ccc4ccccc4c3CCC2(C)C(=O)C1 (stereo not given)
inactive: dose: 10.0 mg/kg/injection, schedule: Q01DX009 (sc), vehicle: steriod suspending solution 104 % of control | dose: 18.0 mg/kg/injection, schedule: Q04DX003 (sc), vehicle: steriod suspending solution 91 % of control | dose: 20.0 mg/kg/injection, schedule: Q01DX009 (sc), vehicle: steriod suspending solution 95 % of control | dose: 37.5 mg/kg/injection, schedule: Q04DX003 (sc), vehicle: steriod suspending solution 95 % of control | dose: 40.0 mg/kg/injection, schedule: Q01DX009 (sc), vehicle: steriod suspending solution 100 % of control | dose: 75.0 mg/kg/injection, schedule: Q04DX003 (sc), vehicle: steriod suspending solution 108 % of control

CSc1ssc(=Nc2ccc(C)cc2)c1-c1ccccc1
inactive: [1] 105 % of control | [4] 90 % of control | [2] 100 % of control | [5] 95 % of control | [3] 95 % of control

COC(=O)C1SCc2ccccc2C1=O (stereo not given)
inactive: dose: 100.0 mg/kg/injection, schedule: Q04DX003 (ip), vehicle: saline with Tween-80 104 % of control | dose: 200.0 mg/kg/injection, schedule: Q04DX003 (ip), vehicle: saline with Tween-80 105 % of control | dose: 400.0 mg/kg/injection, schedule: Q04DX003 (ip), vehicle: saline with Tween-80 105 % of control

C1=CC2c3ccccc3C1c1ccccc12
inactive: dose: 100.0 mg/kg/injection, schedule: Q01DX007 (sc), vehicle: olive oil, sesame oil, peanut oil 91 % of control | dose: 100.0 mg/kg/injection, schedule: Q04DX003 (sc), vehicle: olive oil, sesame oil, peanut oil 100 % of control | dose: 200.0 mg/kg/injection, schedule: Q01DX007 (sc), vehicle: olive oil, sesame oil, peanut oil 104 % of control | dose: 200.0 mg/kg/injection, schedule: Q04DX003 (sc), vehicle: olive oil, sesame oil, peanut oil 90 % of control | dose: 400.0 mg/kg/injection, schedule: Q01DX007 (sc), vehicle: olive oil, sesame oil, peanut oil 95 % of control | dose: 400.0 mg/kg/injection, schedule: Q04DX003 (sc), vehicle: olive oil, sesame oil, peanut oil 110 % of control

CNC(=S)NC1C2CC3CC(C2)CC1C3 (stereo not given)
inactive: [6] 94 % of control | [7] 94 % of control | [8] 94 % of control

CCCC(=O)c1cc(O)c(O)cc1O
inactive: dose: 12.5 mg/kg/injection, schedule: Q01DX009 (ip), vehicle: saline with Tween-80 95 % of control | dose: 25.0 mg/kg/injection, schedule: Q01DX009 (ip), vehicle: saline with Tween-80 104 % of control | [6] 106 % of control

O=C(Nc1ccc(Br)cc1)c1cc(Br)ccc1O
inactive: dose: 50.0 mg/kg/injection, schedule: Q01DX010 (ip), vehicle: steriod suspending solution 104 % of control | dose: 100.0 mg/kg/injection, schedule: Q01DX010 (ip), vehicle: steriod suspending solution 100 % of control | dose: 200.0 mg/kg/injection, schedule: Q01DX010 (ip), vehicle: steriod suspending solution 100 % of control | dose: 400.0 mg/kg/injection, schedule: Q01DX010 (ip), vehicle: steriod suspending solution 109 % of control

O=C(CC(c1ccccc1)c1ccccc1)c1ccccc1
inactive: dose: 100.0 mg/kg/injection, schedule: Q01DX009 (ip), vehicle: Klucel (hydroxypropylcellulose) (HPC) 108 % of control | [1] 120 % of control | [4] 108 % of control | [2] 110 % of control | [5] 91 % of control | [3] 120 % of control

CCN(Cc1ccccc1)c1ccc(/C=C/c2ccnc3ccccc23)cc1
inactive: [6] 100 % of control | [7] 90 % of control | [8] 108 % of control

N=C1CCCC1C(=S)SC(CC(N)=O)C(=O)O (stereo not given)
inactive: [6] 108 % of control | [7] 112 % of control | [8] 112 % of control
